Assay results from ChEMBL document CHEMBL4266017, “Colony-wise Analysis of a Theonella swinhoei Marine Sponge with a Yellow Interior Permitted the Isolation of Theonellamide I” (J Nat Prod, 2018).

System: HeLa
Assay: Cytotoxicity against human HeLa cells assessed as decrease in cell viability after 72 hrs by XTT assay
Type: functional, cell-based

Q: For CC(/C=C/c1ccccc1)=C\[C@H](O)[C@@H]1CC(=O)N[C@@H](CO)C(=O)N[C@H]2C[n+]3cc(n([C@@H]4OC[C@H](O)[C@H](O)[C@H]4O)c3)C[C@H](NC(=O)CCC[C@@H](C(=O)[O-])NC(=O)[C@@H](O)CNC(=O)[C@H](Cc3ccc(Br)cc3)NC(=O)[C@H]([C@@H](O)C(N)=O)NC(=O)[C@H](CC(N)=O)NC2=O)C(=O)N[C@@H]([C@H](C)O)C(=O)N[C@@H](CO)C(=O)N[C@@H](Cc2ccccc2)C(=O)N1, which IC50 is on record?
A: Its IC50 is 1900 nM.
